Structures can show the parent of a compound that is named as a salt. Where two headings read alike, the source gives them in different places.

Holding throughout (format): cell-based
For assay [1], the system named is human blood platelets. Kind of assay: In vitro inhibition of ADP-induced human platelet aggregation (platelet-rich plasma, aggregometer). Here is the method: Procedure for Determining In Vitro Platelet Aggregation-Inhibitory Activity. Adenosine diphosphate (ADP) was used to induce platelet aggregation and was utilized as the sodium salt. A 10 mM stock solution was prepared fresh before each use in modified Tyrode's buffer and working dilutions were prepared with modified Tyrode's buffer immediately prior to use. The buffer contained NaCl (137.00 mM), KCl (2.70 mM), NaHCO3 (11.90 mM), NaH2 PO4 H2 O (0.36 mM) and glucose (5.60 mM) in redistilled water. Adjustment to pH 7.4 was effected by addition of 1N HCl.
The blood was transferred into plastic centrifuge tubes containing 3.2% sodium citrate (blood/citrate ratio 8:1) and centrifuged at 120Xg for 15 minutes at 23° C., yielding platelet-rich plasma (PRP); platelet-poor-plasma (PPP) was obtained by centrifugation of citrated whole blood at 1,100Xg for 15 min at 23° C. The platelet count of PRP was determined and adjusted to a final count of 300,000 platelet per mm^3 by dilution with autologous PPP. […] The plasma so obtained was transferred using a 1.0 ml Centaur pipette into a 50 ml polyethylene centrifuge tube. In order to maintain plasma pH in the appropriate range, the air in the tubes are displaced gently (2 minutes) with a 5% (CO2 -95% air (v/v) mixture and the tube capped. The plasma was maintained at 37° C. in a water bath until used in the aggregation experiments.
Assays of platelet aggregation were performed at least in duplicate, using plasma acquired from different donors, employing a method developed by Quintana, et al. (Quintana, et al., Relationships Between the Chemical Constitution of Carbamoylpiperidines and Related Compounds, and Their Inhibition of ADP-Induced Human Blood Platelet Aggregation, Thromb. Res. Vol. 22, Pages 665-680, 1981); Quintana, et al., Effects of Ethanol and of Other Factors on ADP-Induced Aggregation of Human Blood Platelets in Vitro, Thromb. Res., Vol. 20, Pages 405-415, 1980) (cf. Born, Nature, Vol. 194, Pages 927-929, 1962) and Mustard, et al., J. Lab. Clin. Med., Vol. 64, Pages 548-559, 1964).
Initially, in each experiment, 0.45-ml aliquots of PRP were placed in siliconized cuvettes and stirred (1,100 rpm) in the aggregometer at 37° C. to ascertain the absence of spontaneous aggregation. Appropriate ADP solutions (50 μl) were subsequently injected using a Hamilton microliter syringe to determine the minimal concentration eliciting maximal biphasic aggregation. […] In each case, the concentration of ADP so determined was used in eliciting aggregation throughout each specific set of aggregometric evaluations.
0.5 μl of a solution of the evaluant compound in redistilled 95% ethanol was injected into a stirred ([…]) 0.4-ml aliquot of plasma in a siliconized cuvette in the aggregometer-well (37° C). After 15 seconds, the cuvette was transferred to an incubator (also at 37° C.) and the contents held at this temperature, without stirring, until 2 minutes postinjection. The cuvette was then returned to the aggregometer-well, a base-line being recorded for 2 minutes to detect any spontaneous aggregation. At exactly 4 minutes after injection of the evaluant solution, 50 μl of the appropriate ADP solution was injected and aggregation recorded for 5.5 minutes. Evaluants were studied at least 4 different concentrations. Control experiments (ethanol in a final concentration of 0.095% v/v) were performed in conditions parallel with those involving the respective evaluants, and were initiated either 1 minute prior to or 1 minute after the start of experiments employing the test compounds. This permitted injections to be made precisely at the specified times.

The subject of assay [2] is human platelets. Kind of assay: Inhibition of collagen-induced aggregation, washed aequorin-loaded platelet suspension. The settings on record: Homo sapiens, Platelet; collagen-induced aggregation (n = 4); HEPES-buffered saline, 1.0 mM CaCl2; read-out: Ia50 ± S.E. Collagen-induced. The procedure:
(§1) Procedure for Cytosolic Ionized Calcium Determination. The basic procedure of Yamaguchi, et al. (Thromb. Res., Vol. 44, Pages 165-174, 1986) was followed. Blood was collected from six blood donors, aged 24-38 years, who had fasted overnight and affirmed abstinence from alcohol, caffeine and medications of any kind for a period of at least one week prior to donation. […] Platelets were collected (800 g, 15 min), resuspended in and washed (800 g, 15 min) with HEPES-buffered saline (140 mM NaCl, 2.7 mM KCl, 0.1% bovine albumin, 0.5% glucose, 3.8 mM HEPES, pH 7.6) with EGTA (5 mM) and PGE1 (1 μM). The platelet pellet was resuspended in 90 μl of the same buffer and added to 20μl of 3 mg/ml aequorin solution in a 1.5 ml Eppendorf centrifuge tube. Six 1 μl aliquots of DMSO were added at 90 second intervals with brief, gentle mixing on a Vortex mixer and the platelet suspension was incubated 2 minutes after the last addition. One ml of HEPES-buffered saline was added, gently mixed, and again incubated for 2 minutes. The platelets were pelleted (1000 g, 30 sec), resuspended in HEPES-buffered saline to which was added either 1 mM Mg Cl2, (calcium-free buffer) or 1 mM Mg Cl2 and 1 mM Ca Cl2 (calcium buffer), depending on the experiment. The platelet count was adjusted to 3-4×10^5 platelets/μl.
(§2) The Platelet Ionized Calcium Aggregometer (Chrono-Log Corp., Ltd., Havertown, Pa.) was used to obtain simultaneous aggregation and luminescence data under the following experimental conditions: (1) platelet suspension, 1 ml, was equilibrated at 37° C. with stirring at 1100 rpm; (2) 100 μl (1.2 μg) of fibrinogen was added; (3) the vehicle (95% ethanol) or the test compound in vehicle was added; (4) when needed, 10 μl of the desired concentration of EGTA was added 30 seconds prior to addition of the agonist; then (5) the agonist (Collagen, 5 μg or 20 μg) was added and the time noted. At one minute after addition of the agonist in Channel 1, a platelet sample containing fibrinogen in Channel 2 was lysed with 10 μl of a 1:1 solution of Triton X-100 (final concentration 0.005%) 10 mM CaCl2 (final concentration 0.5 mM). Treated and control […] data were corrected for time dependent decay of fluorescence using data from the untreated lysed controls.
(§3) Normally 4 compound-treated samples (at 4 different concentrations) interspersed with 3 control samples were evaluated at 4.5 minute intervals starting 18-23 minutes after the DMSO treatment. The Ia50 values were calculated as described earlier. The compound concentrations effecting 50% inhibition (Ica50) of collagen-induced cytosolic ionized calcium values was determined by linear regression analysis.
Compounds I-rac, (+)-I,(IC) and (-)-I(IA) were evaluated. The Ia50 (collagen-induced aggregation) and Ica50 (compound concentration required to inhibit by 50% the collagen-induced rise in cytosolic ionized calcium)values determined with platelet suspensions in HEPES-buffered saline containing 1.0 mM CaCl2 were as follows: […]

The subject of assay [3] is cytosolic ionized calcium in human platelets. Kind of assay: Inhibition of collagen-induced rise in cytosolic ionized calcium (aequorin luminescence). Conditions: collagen-induced, 1mM [Ca2+]o (n = 4); listed as IA (-)-I; read-out: Ica50 ± S.E. Collagen-induced (50% inhibition of collagen-induced rise in cytosolic ionized calcium). The procedure: as §1, §2, §3
Compounds I-rac, (+)-I,(IC) and (-)-I(IA) were evaluated. The Ia50 (collagen-induced aggregation) and Ica50 (compound concentration required to inhibit by 50% the collagen-induced rise in cytosolic ionized calcium)values determined with platelet suspensions in HEPES-buffered saline containing 1.0 mM CaCl2 were as follows:
Collagen-stimulation of platelets suspended in media containing 1.0 mM of Ca^2+ (FIG. 13) or 1.0 mM (FIG. 14A) or 2.0 mM (FIG. 14B) EGTA (a calcium chelator) gave […] cytosolic ionized calcium peak (aequorin-indicated luminescence). Contrarily, two phases of Ca^2+ mobilization were observed when aequorin-loaded human platelets suspended in a medium containing 0.1 mM EGTA were stimulated with collagen (FIG. 14, designation D). The first corresponded to platelet shape change and the second peak to aggregation. […] The platelet suspension (1.0 ml) was pre-incubated with 1.0 μl of (A) 95% ethanol, (B) a solution of Compound I (14.59 μM) in 95% ethanol, or (C) a solution of Compound I (23.87 μM) in 95% ethanol. Collagen (20 μg) was added at time indicated by the arrows. Luminescence was again recorded at a gain of 0.5. […] Accordingly, the stereo-selective inhibitory properties of the compounds of the present invention appear to be mediated through the inhibition of [Ca^2+ ].

Where [4] appears, read: Homo sapiens, Platelet, racemic compounds, ADP-induced, read-out: IC50 (compound concentration which inhibits ADP-induced platelet aggregation by 50%) ± S.E.
Setting [5] is: Homo sapiens, Platelet, read-out: IC50 (compound concentration which inhibits ADP-induced platelet aggregation by 50%) ± S.E., racemic compounds, ADP-induced.
The mark [6] stands for this setting: Homo sapiens, Platelet, read-out: Ia50 ± S.E. ADP-induced, table 4, ADP-induced, 5 to 7 individual determinations.
[7] abbreviates: Homo sapiens, Platelet, read-out: Ia50 (compound concentrations affecting 50% inhibition of aggregation) ± S.E., Table II, ADP-induced, n = 5 for (0)I and 6 for all others.

Take `CCN(CC)CC1CCCN(Cc2ccc(CN3CCCC(CN(CC)CC)C3)cc2)C1` (racemic) [Compound 4, α,α'-Bis[3-(N,N-diethylaminomethyl)-piperidino]-p-xylene tetrahydrochloride]: the IC50 in assay [1] (setting [4]) was 156 ± 460 µM; in assay [1] (Homo sapiens, Platelet, racemic compounds, C = IC50 × 10^-3, read-out: Log1/C (converted)), 1570 µM.

In the case of `O=C(NCc1ccccc1)C1CCCN(Cc2ccc(CN3CCCC(C(=O)NCc4ccccc4)C3)cc2)C1` (racemic) [Compound 5, α,α'-Bis[3-(N-benzylcarbamoyl)piperidino]p-xylene dihydrobromide], the IC50 in assay [1] (setting [4]) came out at 53.6 ± 5.3 µM.

Regarding `CCN(Cc1ccccc1)C(=O)C1CCCN(Cc2ccc(CN3CCCC(C(=O)N(CC)Cc4ccccc4)C3)cc2)C1` (racemic) [Compound 6, α,α'-Bis[3-(N-benzyl-N-ethylcarbamoyl)piperidino]-p-xylene dihydrobromide], in assay [1] (setting [4]), the IC50 turned out to be 37.7 ± 4.6 µM.

Take `CCCN(Cc1ccccc1)C(=O)C1CCCN(Cc2ccc(CN3CCCC(C(=O)N(CCC)Cc4ccccc4)C3)cc2)C1` (racemic) [Compound 7, α,α'-Bis[3-(N-benzyl-N-propylcarbamoyl)piperidino]p-xylene dihydrobromide]: the IC50 in assay [1] (setting [4]) was determined as 72.9 ± 20.8 µM.

Consider `O=C(C1CCCN(Cc2ccc(CN3CCCC(C(=O)N(Cc4ccccc4)Cc4ccccc4)C3)cc2)C1)N(Cc1ccccc1)Cc1ccccc1` (racemic) [Compound 8, α,α'-Bis[3-(N,N-dibenzylcarbamoyl)piperidino] p-xYlene dihydrobromide], for which the IC50 in assay [1] (setting [4]) was 303 ± 60.8 µM.

With `O=C(C1CCCN(Cc2ccc(CN3CCCC(C(=O)N4CCCCC4)C3)cc2)C1)N1CCCCC1` (racemic) [Compound 10, α,α'-Bis[3-(piperidinocarbonyl)piperidino] p-xylene dihydrobromide], the IC50 in assay [1] (Homo sapiens, Platelet, table 4, ADP-induced, 5 to 7 individual determinations, read-out: Ia50 ± S.E. ADP-induced) came out at 28.9 ± 8.96 µM.

Turning to `CN(Cc1ccccc1)C(=O)C1CCCN(Cc2ccc(CN3CCCC(C(=O)N(C)Cc4ccccc4)C3)cc2)C1` (racemic) [Compound 13c, α,α'-Bis[3-(N-benzyl-N-methylcarbamoyl)piperidino]p-xylene], the IC50 was found to be 27.3 ± 3.2 µM in assay [1] (setting [5]) and 27.3 ± 3.23 µM in assay [1] (setting [6]).

Consider `CN(Cc1ccccc1)C(=O)C1CCCN(Cc2ccc(CN3CCCC(C(=O)N(C)Cc4ccccc4)C3)cc2)C1` (single isomer, unassigned) [Compound 13c-A], for which the IC50 in assay [1] (read-out: Ia50 ± S.E. ADP-induced, table 4, ADP-induced, 5 to 7 individual determinations, listed as 13c-A(-)) stood at 57.4 ± 6.01 µM.

`CN(Cc1ccccc1)C(=O)C1CCCN(Cc2ccc(CN3CCCC(C(=O)N(C)Cc4ccccc4)C3)cc2)C1` (single isomer, unassigned) [Compound 13c-C]: the IC50 in assay [1] (read-out: Ia50 ± S.E. ADP-induced, table 4, ADP-induced, 5 to 7 individual determinations, listed as 13c-C(+)) was 9.55 ± 1.47 µM.

In the case of `CCN(CC)C(=O)C1CCCN(Cc2ccc(CN3CCCC(C(=O)N(CC)CC)C3)cc2)C1` (single isomer, unassigned) [IA], the IC50 in assay [1] (setting [7]) worked out at 233 ± 52.1 µM; in assay [1] (Homo sapiens, Platelet, read-out: Ia50 ± S.E. ADP-Induced, table 3, ADP-induced (n = 5-6)) it was 233 µM; in assay [2], 199 µM; in assay [3] it was 171 µM.

In the case of `CN(C)CCCN1c2ccccc2Sc2ccc(Cl)cc21` [Chlorpromazine, reference compound], the IC50 in assay [1] (setting [7]) was determined as 156 ± 25.5 µM.

Regarding `CCCCN(C)C(=O)C1CCCN(Cc2ccc(CN3CCCC(C(=O)N(C)CCCC)C3)cc2)C1` (stereo not drawn) [Compound 9, α,α'-Bis[3-(N-methyle-N-butylcarbamoyl)piperidino] p-xylene dihydrobromide], in assay [1] (setting [5]), the IC50 is 22.1 ± 5.5 µM.

As for `CN(Cc1ccccc1)C(=O)[C@@H]1CCCN(Cc2ccc(CN3CCC[C@H](C(=O)N(C)Cc4ccccc4)C3)cc2)C1` [Compound 13c-B], the IC50 in assay [1] (setting [6]) amounted to 46.9 ± 8.37 µM.

Turning to `CN1CCN(CCCN2c3ccccc3Sc3ccc(C(F)(F)F)cc32)CC1` [Trifluoperazine, reference compound], the IC50 in assay [1] (Homo sapiens, Platelet, Table II, ADP-induced, n = 5 for (0)I and 6 for all others, read-out: Ia50 (compound concentrations affecting 50% inhibition of aggregation) ± S.E.) was 202 ± 21.9 µM.

The record behind these values is patent US5219867A, “Platelet aggregation inhibitory agents” (priority 1992, dated 1993).
